Data set [1] has as its system MCF-7 (breast cancer cell line). Description: MTT cytotoxicity assay, MCF-7. It is filed as cell-based. As to conditions: Homo sapiens, MCF7, 24 h, 24 h treatment, mean of three experiments. How it is done:
(§1) The effect of imidazole molecules 4a–e and 5 on the viability of three cancer cell lines were studied using the MTT assay. The cytotoxicity was assessed using Docetaxel (DOC) as a standard antitumor drug. The three cancer cell lines were MCF-7 (breast cancer cell line), colon carcinoma (HCT-116), and HepG2 (hepatocellular carcinoma cell line). […] Moreover, the safety of compounds 4d and 5 was assessed against a normal breast cell line (MCF-10A) using the MTT assay.
(§2) Antitumor activity of the newly prepared imidazole compounds 4a–e and 5 were carried out against MCF-7, HepG2, HCT-116, and MCF-10A using the MTT assay method. Cells at a density of 1 × 10^4 were seeded in 96-well plates at 37 °C for 48 h under 5% CO2. After incubation, the cells were treated with different concentrations of the prepared molecules and incubated for 24 h. MTT dye was added at the end of 24 h of drug treatment and incubated for 4 h at 37 °C. Next, 100 µL of dimethyl sulfoxide was added to each well to dissolve the purple formazan formed. The color intensity of the formazan product, which represents the growth condition of the cells, is quantified using an ELISA plate reader at 570 nm. The experimental conditions were carried out with at least three replicates and the experiments were repeated at least three times.
For orientation: Formazan colour is commonly taken as a measure of viable cells.

Data set [2] deals with HepG2 (hepatocellular carcinoma cell line). Kind of data set: MTT cytotoxicity assay, HepG2. As to conditions: Homo sapiens, HepG2, 24 h, 24 h treatment, mean of three experiments. In kind it is cell-based. How it is done: as §1, §2
The test system of data set [3] is colon carcinoma (HCT-116). Description: MTT cytotoxicity assay, HCT-116. It is filed as cell-based. As to conditions: 24 h treatment, mean of three experiments. As to the method: as §1, §2
For data set [4], the system named is normal breast cell line (MCF-10A). Description: MTT cytotoxicity assay, normal breast cell line MCF-10A. It is filed as cell-based. As to conditions: for IC50: Homo sapiens, MCF-10A, 24 h treatment. How it is done: as §1, §2
Data set [5] deals with MCF-7 cells. Description: Cell cycle analysis by DNA flow cytometry. It is filed as cell-based. As to conditions: MCF-7, compound at its IC50, 48 h; for percentage of cells at pre-G1 phase: control 1.61%; for percentage of cell population at the G2/M phase: control 8.79%. As to the method: Therefore, it can be concluded that compounds 4d and 5 inhibit the cell proliferation of MCF-7 cells via cell cycle arrest at the G2/M phase and induction of apoptosis (Figure 2).
MCF-7 cells (2 × 10^5/well) were harvested and washed twice in PBS. After that, cells were incubated at 37 °C and 5% CO2. The medium was replaced with DMSO (1% v/v) containing the tested compounds, then incubated for 48 h, washed twice in PBS, fixed with 70% ethanol, rinsed again with PBS, and then stained with DNA fluorochrome PI for 15 min at 37 °C. DNA content was analyzed by flow cytometry on a FACS Calibur flow cytometer (Becton and Dickinson, Heidelberg, Germany).

In data set [6] the test system is MCF-7 cells. Kind of data set: Annexin V-FITC/PI apoptosis induction analysis. It is filed as cell-based. As to conditions: MCF-7, compound at its IC50, 48 h; for percent of early apoptosis: lower right quadrant, control 0.43%; for percent of late apoptosis: upper right quadrant, control 0.23%. As to the method:
Several imidazole molecules have been reported in the literature as apoptosis inducers in several tumor cell lines. To evaluate the mode of cell death induced by compounds 4d and 5, Annexin V/FITC and propidium iodide (PI) assays were performed. MCF-7 cells were treated with compounds 4d and 5 at their IC50 concentration dose value for 48 h.
Apoptosis in MCF-7 cells was investigated using fluorescent Annexin V-FITC/PI detection kit by flow cytometry assay. Briefly, MCF-7 cells (2 × 10^5) after incubation for 12 h. Cells were treated with compounds 4d and 5 at their IC50 concentration for 48 h, then the cells were harvested and stained with Annexin V-FITC/PI dye for 15 min in the dark at 37 °C. Flow cytometry analyses were performed using a FACS Calibur flow cytometer (Becton and Dickinson, Heidelberg, Germany).

The target of another data set is T1, human VEGFR-2 (Homo sapiens, UniProt P35968).
T1 construct: purchased
Description: In vitro VEGFR-2 kinase assay (ELISA). In kind it is biochemical. As to conditions: n = 3, read-out: IC50 against VEGFR-2 kinase (converted). As to the method: To investigate the possible molecular mechanism underlying the potent anticancer activity of compounds 4d and 5. Their inhibitory activity against VEGFR-2 kinase was determined using an ELISA assay.
A total of 100 µL of standard solution and tested molecules were pipetted into the 96-wells and VEGFR-2 was bound to the wells by the immobilized antibody. The wells were washed and biotinylated antihuman VEGFR-2 antibody was added. After washing away unbound biotinylated antibody, 100 µL of conjugated streptavidin solution was pipetted into the wells. After washing, 100 µL of TMB substrate solution was added to the wells for 30 min at 37 °C. Stop solution (50 µL) was added, and the intensity of the color was measured immediately at 450 nm.

The target of the next data set is T2, B-Raf^V600E (Homo sapiens, UniProt P15056, V600E).
T2 construct: purchased
Description: In vitro B-Raf kinase assay (ELISA). It is filed as biochemical. As to conditions: n = 3, read-out: IC50 against B-Raf^V600E (converted). How it is done:
Raf is a protein kinase that initiates a cascade of other protein kinases by acting on the protein kinases MEK-1 and MEK-2 [21].
Next, 100 µL of standard solution and tested molecules were pipetted into the 96-wells and B-RAF was bound to the wells by the immobilized antibody. The wells were washed and biotinylated antihuman B-Raf antibody was added. After washing away unbound biotinylated antibody, 100 µL of conjugated streptavidin solution was pipetted into the wells. After washing, 100 µL of TMB substrate solution was added to the wells for 30 min at 37 °C. Stop solution (50 µL) was added, and the intensity of the color is measured immediately at 450 nm.
(ELISA stands for enzyme-linked immunosorbent assay.)

Another data set deals with MCF-7 cell line. On the set-up: method as in PMID 32757353. As to conditions: read-out: IC50 against MCF-7 cell line; cited from earlier work.

The IC50 is the concentration at which inhibition is half-maximal. What is called melting point is the temperature, or range, at which the solid turns liquid.

T2 sequence (P15056 whole entry V600E): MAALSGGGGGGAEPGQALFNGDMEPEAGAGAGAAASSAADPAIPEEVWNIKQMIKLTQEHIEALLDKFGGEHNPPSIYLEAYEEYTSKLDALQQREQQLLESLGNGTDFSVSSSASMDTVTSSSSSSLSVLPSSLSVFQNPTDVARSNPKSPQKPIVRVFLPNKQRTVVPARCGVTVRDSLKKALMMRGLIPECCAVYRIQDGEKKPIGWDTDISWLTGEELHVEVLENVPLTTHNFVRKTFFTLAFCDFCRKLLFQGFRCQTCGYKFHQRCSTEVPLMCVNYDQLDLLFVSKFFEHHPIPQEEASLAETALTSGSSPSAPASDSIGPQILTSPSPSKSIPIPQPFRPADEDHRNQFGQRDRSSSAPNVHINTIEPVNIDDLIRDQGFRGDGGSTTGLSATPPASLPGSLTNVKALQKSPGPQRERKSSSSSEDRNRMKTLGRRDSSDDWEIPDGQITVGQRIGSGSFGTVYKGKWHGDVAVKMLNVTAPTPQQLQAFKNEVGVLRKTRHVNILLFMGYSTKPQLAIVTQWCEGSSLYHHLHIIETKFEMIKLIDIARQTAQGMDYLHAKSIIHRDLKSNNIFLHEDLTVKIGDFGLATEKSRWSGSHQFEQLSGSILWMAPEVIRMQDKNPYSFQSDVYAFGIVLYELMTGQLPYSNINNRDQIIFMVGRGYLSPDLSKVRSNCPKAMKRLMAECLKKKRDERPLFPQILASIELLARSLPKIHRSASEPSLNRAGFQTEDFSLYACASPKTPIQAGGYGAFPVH
T1 sequence (P35968 20-1356): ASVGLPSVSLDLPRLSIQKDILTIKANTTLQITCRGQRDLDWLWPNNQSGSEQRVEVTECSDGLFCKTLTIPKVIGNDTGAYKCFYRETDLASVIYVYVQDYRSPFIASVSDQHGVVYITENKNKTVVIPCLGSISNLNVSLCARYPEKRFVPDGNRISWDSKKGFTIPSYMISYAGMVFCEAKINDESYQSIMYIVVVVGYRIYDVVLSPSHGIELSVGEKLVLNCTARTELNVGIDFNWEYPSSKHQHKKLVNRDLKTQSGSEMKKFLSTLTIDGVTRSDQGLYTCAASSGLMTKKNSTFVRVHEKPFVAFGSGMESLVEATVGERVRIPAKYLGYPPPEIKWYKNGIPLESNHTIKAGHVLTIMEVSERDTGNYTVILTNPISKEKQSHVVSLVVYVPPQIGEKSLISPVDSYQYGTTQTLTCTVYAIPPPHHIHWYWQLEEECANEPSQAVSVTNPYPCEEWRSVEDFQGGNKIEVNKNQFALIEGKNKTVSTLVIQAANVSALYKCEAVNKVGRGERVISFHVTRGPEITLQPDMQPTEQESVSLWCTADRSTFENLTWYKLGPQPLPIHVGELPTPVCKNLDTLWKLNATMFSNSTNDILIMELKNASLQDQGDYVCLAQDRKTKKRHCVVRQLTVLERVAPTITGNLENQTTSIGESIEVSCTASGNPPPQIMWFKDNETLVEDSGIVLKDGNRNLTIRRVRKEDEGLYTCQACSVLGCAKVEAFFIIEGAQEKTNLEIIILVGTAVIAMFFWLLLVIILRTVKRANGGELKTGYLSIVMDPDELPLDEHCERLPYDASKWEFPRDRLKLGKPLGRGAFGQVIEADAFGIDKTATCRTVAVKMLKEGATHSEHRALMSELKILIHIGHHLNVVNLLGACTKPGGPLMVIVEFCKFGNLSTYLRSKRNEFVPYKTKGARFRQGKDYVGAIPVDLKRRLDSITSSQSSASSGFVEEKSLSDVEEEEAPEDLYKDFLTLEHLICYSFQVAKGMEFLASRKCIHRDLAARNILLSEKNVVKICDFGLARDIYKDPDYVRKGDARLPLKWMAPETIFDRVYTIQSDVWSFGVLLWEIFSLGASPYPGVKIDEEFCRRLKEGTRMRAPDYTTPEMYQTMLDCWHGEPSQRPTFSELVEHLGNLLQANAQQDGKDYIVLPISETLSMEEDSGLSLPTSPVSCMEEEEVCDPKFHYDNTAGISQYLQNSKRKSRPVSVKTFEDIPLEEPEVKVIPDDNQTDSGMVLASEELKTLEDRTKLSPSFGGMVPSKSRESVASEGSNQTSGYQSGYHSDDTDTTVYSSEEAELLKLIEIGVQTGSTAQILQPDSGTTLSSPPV

`S=c1[nH]cc(-c2ccc(Cl)cc2)n1/N=C/c1ccccc1` [Compound 4a, (E)-1-(Benzylideneamino)-5-(4-chlorophenyl)-1H-imidazole-2(3H)-thione] showed a melting point of 121 to 123 °C. Besides, the IC50 in data set [1] was greater than 50 µM. In data set [2], the IC50 was determined as 61.8 ± 4.1 µM. Further, the IC50 in data set [3] (Homo sapiens, HCT-116, 24 h) amounted to 20.6 ± 1.4 µM.

As for `Oc1ccccc1/C=N/n1c(-c2ccc(Cl)cc2)c[nH]c1=S` [Compound 4b, (E)-5-(4-Chlorophenyl)-1-(2-hydroxybenzylideneamino)-1H-imidazole-2(3H)-thione], the melting point was in the range of 128 to 130 °C. Further, half-maximal inhibition in data set [1] (IC50) required 24.9 ± 1.6 µM. In data set [2], this compound yielded an IC50 greater than 50 µM. 23.5 ± 1.6 µM corresponded to half-maximal inhibition in data set [3] (Homo sapiens, HCT-116, 24 h) (IC50).

For the compound `Oc1ccc(Br)cc1/C=N/n1c(-c2ccc(Cl)cc2)c[nH]c1=S` [Compound 4c, (E)-1-(5-Bromo-2-hydroxybenzylideneamino)-5-(4-chlorophenyl)-1H-imidazole-2(3H)-thione], the melting point fell in the range of 191 to 193 °C. The same compound yielded an IC50 in data set [1] of 44 ± 2.9 µM. In addition, the IC50 in data set [2] was 11.4 ± 0.8 µM. Further, in data set [3] (Homo sapiens, HCT-116, 24 h), the IC50 was determined as 9.96 ± 0.7 µM.

Regarding `COc1ccc(/C=N/n2c(-c3ccc(Cl)cc3)c[nH]c2=S)cc1` [Compound 4d, (E)-5-(4-Chlorophenyl)-1-(4-methoxybenzylideneamino)-1H-imidazole-2(3H)-thione], the concentration for half-maximal inhibition (IC50) in data set [1] was 7.97 ± 0.5 µM; in data set [2] it was 4.09 ± 0.3 µM; in [3] (Homo sapiens, HCT-116, 24 h), 28.9 ± 1.9 µM; in data set [4], 44.06 ± 0.23 µM; at human VEGFR-2 it was 0.721 µM; at B-Raf^V600E, 38 µM. The “cytotoxic effect towards MCF-10A (in words)” value in data set [4] was “weak cytotoxic effect”. Also, in the data set on MCF-7 cells [5], the “percentage of cells at pre-G1 phase” value was determined as 22.36%. Besides, the “percentage of cell population at the G2/M phase” value with MCF-7 cells [5] was 35.55%. Further, the “percent of early apoptosis” value in the data set with MCF-7 cells [6] was 6.12%. For the same compound, the “percent of late apoptosis” value in the data set on MCF-7 cells [6] worked out at 10.23%.

The compound `S=c1[nH]cc(-c2ccc(Cl)cc2)n1/N=C/C=C/c1ccccc1` [Compound 4e, 5-(4-Chlorophenyl)-1-((E)-((E)-3-phenylallylidene)amino)-1H-imidazole-2(3H)-thione] gave a melting point of 139 to 141 °C. The compound also gave an IC50 in data set [1] of 13.2 ± 0.9 µM. The same compound had an IC50 in data set [2] of 17 ± 1.1 µM. This compound returned an IC50 in data set [3] (Homo sapiens, HCT-116, 24 h) of 3.99 ± 0.3 µM.

Take `COc1ccc(-c2c[nH]c(=S)n2/N=C/c2ccccc2O)cc1` [Compound 5, (E)-1-(2-Hydroxybenzylideneamino)-5-(4-methoxyphenyl)-1H-imidazole-2(3H)-thione]: the IC50 was 3.99 ± 0.3 µM in [3]; less than 5 µM in data set [3] (Homo sapiens, HCT-116, 24 h); 27.8 ± 0.31 µM in [4]; 0.252 µM on human VEGFR-2; 7.31 µM at B-Raf^V600E. The “cytotoxic effect towards MCF-10A (in words)” value in data set [4] is “weak cytotoxic effect”. Also, the “percentage of cells at pre-G1 phase” value in the data set on MCF-7 cells [5] was 22.81%. Also, the “percentage of cell population at the G2/M phase” value in the data set with MCF-7 cells [5] turned out to be 25.63%. Moreover, the “percent of early apoptosis” value in the data set with MCF-7 cells [6] was 2.66%. In the data set on MCF-7 cells [6], the “percent of late apoptosis” value is 13.64%.

Regarding `CC(=O)Oc1ccccc1/C=N/n1c(-c2ccc(Cl)cc2)cn(C(C)=O)c1=S` [Compound 6, (E)-2-((3-Acetyl-5-(4-chlorophenyl)-2-thioxo-2,3-dihydro-1H-imidazol-1-ylimino)methyl)phenyl Acetate], the melting point lay in the range of 115 to 117 °C.

In the case of `CC(=O)O[C@@]12CO[C@@H]1C[C@H](O)[C@@]1(C)C(=O)[C@H](O)C3=C(C)[C@@H](OC(=O)[C@H](O)[C@@H](NC(=O)OC(C)(C)C)c4ccccc4)C[C@@](O)([C@@H](OC(=O)c4ccccc4)[C@H]21)C3(C)C` [DOC, Docetaxel, reference compound], the IC50 in data set [1] came out at 11.1 ± 0.7 µM; in data set [2] it was 8.13 ± 0.5 µM; in data set [3] (Homo sapiens, HCT-116, 24 h), 14 ± 0.9 µM; in data set [4], 33.17 ± 0.19 µM.

On to `CNC(=O)c1cc(Oc2ccc(NC(=O)Nc3ccc(Cl)c(C(F)(F)F)c3)cc2)ccn1` [SOR], for which, in the data set on MCF-7 cell line, the IC50 is 1.12 µM.

Turning to `CCOC(=O)/C(C#N)=C(\c1ccc(O)cc1)n1cc(O)n(/N=C/C=C/c2ccccc2)c1=S` [compound III], in the data set with MCF-7 cell line, the concentration for half-maximal inhibition (IC50) is 3.26 µM.

(Values after article PMC8003321, “5-Aryl-1-Arylideneamino-1H-Imidazole-2(3H)-Thiones: Synthesis and In Vitro Anticancer Evaluation” (Molecules, 2021).)
